Results from patent US11897898B2, “Pyridine macrocycle compounds as ASK1 inhibiting agents” (BIOGEN MA INC., priority 2018, dated 2024).

These compounds were tested against T1, ASK1 T838 auto phosphorylation (Homo sapiens, UniProt Q99683) (assay: ASK1 (AUTO PHOS T838) assay in HEK-293T cells, MSD format). Settings: HEK-293T cells transfected with ASK1-V5, 1 hr compound incubation; class symbols.
T1 construct: ASK1-V5 tagged full length plasmid; expressed in transfected cells; host or cells: HEK-293T
T1 sequence (Q99683 1-1374): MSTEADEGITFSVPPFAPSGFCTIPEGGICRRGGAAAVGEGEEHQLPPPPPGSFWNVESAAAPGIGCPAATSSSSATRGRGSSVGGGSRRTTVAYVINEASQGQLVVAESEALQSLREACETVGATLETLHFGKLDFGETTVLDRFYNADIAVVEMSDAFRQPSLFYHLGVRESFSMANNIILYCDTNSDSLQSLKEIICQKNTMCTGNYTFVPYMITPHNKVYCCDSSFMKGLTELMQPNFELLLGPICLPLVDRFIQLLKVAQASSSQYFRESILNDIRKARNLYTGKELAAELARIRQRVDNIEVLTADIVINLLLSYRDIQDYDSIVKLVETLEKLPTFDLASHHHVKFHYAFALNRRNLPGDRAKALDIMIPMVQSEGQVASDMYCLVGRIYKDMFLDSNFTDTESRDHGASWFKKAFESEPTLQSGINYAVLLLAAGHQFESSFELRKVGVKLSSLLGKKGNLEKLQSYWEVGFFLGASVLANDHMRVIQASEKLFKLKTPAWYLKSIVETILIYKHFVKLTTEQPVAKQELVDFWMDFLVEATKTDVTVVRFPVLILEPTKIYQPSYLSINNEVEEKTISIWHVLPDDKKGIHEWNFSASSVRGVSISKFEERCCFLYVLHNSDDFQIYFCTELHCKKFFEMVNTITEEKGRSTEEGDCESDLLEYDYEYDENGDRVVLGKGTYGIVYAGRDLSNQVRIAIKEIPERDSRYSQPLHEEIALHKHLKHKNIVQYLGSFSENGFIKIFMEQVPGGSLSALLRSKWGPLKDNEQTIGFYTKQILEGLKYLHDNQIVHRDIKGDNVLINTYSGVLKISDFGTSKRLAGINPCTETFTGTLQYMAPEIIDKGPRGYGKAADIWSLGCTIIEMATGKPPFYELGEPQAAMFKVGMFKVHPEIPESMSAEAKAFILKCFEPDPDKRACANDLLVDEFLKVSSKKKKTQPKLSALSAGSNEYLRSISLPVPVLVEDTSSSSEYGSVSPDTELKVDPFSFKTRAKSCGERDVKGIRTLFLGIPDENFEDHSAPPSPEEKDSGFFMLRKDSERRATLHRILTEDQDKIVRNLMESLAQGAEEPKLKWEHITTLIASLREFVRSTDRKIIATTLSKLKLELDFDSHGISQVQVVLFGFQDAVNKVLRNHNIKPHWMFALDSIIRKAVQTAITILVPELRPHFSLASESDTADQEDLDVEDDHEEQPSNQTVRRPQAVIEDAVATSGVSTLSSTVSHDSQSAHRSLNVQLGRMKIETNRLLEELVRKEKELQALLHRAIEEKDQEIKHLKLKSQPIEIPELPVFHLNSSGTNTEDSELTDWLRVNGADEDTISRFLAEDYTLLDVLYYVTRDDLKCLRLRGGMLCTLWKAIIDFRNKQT
Format: cell-based
Summary of the method: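 HEK-293T cells transiently expressing full-length V5-tagged ASK1, treated 1 h at 37 °C with compound (top 20 µM, 3-fold, 10 points). Lysates captured on anti-V5 and probed with anti-pASK1 T838 in MSD electrochemiluminescence format. IC50 from 4-parameter fit of normalized % activity.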

Compound | IC50
C[C@H]1CCCOc2ncc(Br)cc2C(=O)Nc2cccc(n2)-c2nncn21 (single isomer, unassigned) [Compound 1] | ≤ 100 nM
C[C@H]1CCCOc2ncccc2C(=O)Nc2cccc(n2)-c2nncn21 (single isomer, unassigned) [Compound 4] | 100 to 1000 nM
C[C@H]1CCCOc2ncc(C(F)(F)F)cc2C(=O)Nc2cccc(n2)-c2nncn21 (single isomer, unassigned) [Compound 41] | 100 to 1000 nM
C[C@H]1CCCOc2ncc(-c3ccncc3)cc2C(=O)Nc2cccc(n2)-c2nncn21 [Compound 17, (S)-10-Methyl-5^5-(pyridin-4-yl)-1^4H-6-oxa-3-aza-2(2,6),5(3,2)-dipyridina-1(3,4)-triazolacyclodecaphan-4-one] | ≤ 100 nM
C[C@H]1CCCOc2ncc(C#N)cc2C(=O)Nc2cccc(n2)-c2nncn21 [Compound 38, (S)-10-Methyl-4-oxo-1^4H-6-oxa-3-aza-2(2,6),5(3,2)-dipyridina-1(3,4)-triazolacyclodecaphane-5^5-carbonitrile] | 100 to 1000 nM
